Data on 5 compounds can be found in patent publication US20100331333A1, “Imidazo [1,2-B] Pyridazine Compounds” (Wyeth LLC, priority 2007, published 2010).

Usually IC50 stands for the point on the concentration scale where inhibition reaches its midpoint. One may read the EC50 as the concentration at which the effect is half-maximal. Low readings indicate an effect from little substance, high ones a need for much substance.

For one test, the target named is T1, human LXRβ (Homo sapiens, UniProt P55055).
T1 construct: biotin (biotinylated); made in house; host or cells: E. coli
T1 sequence (P55055 1-460): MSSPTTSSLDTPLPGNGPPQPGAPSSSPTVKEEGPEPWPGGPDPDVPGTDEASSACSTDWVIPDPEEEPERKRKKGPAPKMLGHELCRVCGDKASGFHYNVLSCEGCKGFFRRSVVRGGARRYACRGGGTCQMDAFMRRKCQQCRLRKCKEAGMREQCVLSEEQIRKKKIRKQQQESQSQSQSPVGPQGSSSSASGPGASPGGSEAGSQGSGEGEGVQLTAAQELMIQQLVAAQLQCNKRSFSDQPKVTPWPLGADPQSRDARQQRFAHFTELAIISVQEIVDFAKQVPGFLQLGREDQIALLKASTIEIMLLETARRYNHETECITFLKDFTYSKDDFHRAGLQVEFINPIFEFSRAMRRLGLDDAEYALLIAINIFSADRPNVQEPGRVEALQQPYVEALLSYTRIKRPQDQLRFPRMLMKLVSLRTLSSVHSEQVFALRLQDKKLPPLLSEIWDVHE
In words: Ligand-binding test procedure for human LXRβ. Particulars: 3H T0901317 tracer; biotinylated hLXRβ from E. coli extract. Here is the method:
IV. Ligand-Binding Test Procedure for Human LXRβ.
(§1) Buffer: 100 mM KCl, 100 mM TRIS (pH 7.4 at +4° C.), 8.6% glycerol, 0.1 mM PMSF*, 2 mM MTG*, 0.2% CHAPS (* not used in wash buffer)
Receptor source: E. coli extract from cells expressing biotinylated hLXRβ. Extract was made in a similar buffer as above, but with 50 mM TRIS.
(§2) Washed streptavidin and coated flash plates with wash buffer. Diluted receptor extract to give Bmax ˜4000 cpm and add to the wells. Wrapped the plates in aluminum foil and stored them at +4° C. over night.
Made a dilution series in DMSO of the test ligands. Made a 5 nM solution of the radioactive tracer in buffer. Mixed 250 μl diluted tracer with 5 μl of the test ligand from each concentration of the dilution series. Washed the receptor-coated flash plates. Added 200 μl per well of the ligand/radiolabel mixture to the receptor-coated flash plates. Wrapped the plates in aluminum foil and incubate at +4° C. over night.
(§3) Aspirated wells, and wash the flashed plates. Sealed the plate. Measured the remaining radioactivity in the plate.

A further test has as its target T2, human LXRα (Homo sapiens, UniProt Q13133).
T2 construct: biotin (biotinylated); made in house; host or cells: E. coli
T2 sequence (Q13133 1-447): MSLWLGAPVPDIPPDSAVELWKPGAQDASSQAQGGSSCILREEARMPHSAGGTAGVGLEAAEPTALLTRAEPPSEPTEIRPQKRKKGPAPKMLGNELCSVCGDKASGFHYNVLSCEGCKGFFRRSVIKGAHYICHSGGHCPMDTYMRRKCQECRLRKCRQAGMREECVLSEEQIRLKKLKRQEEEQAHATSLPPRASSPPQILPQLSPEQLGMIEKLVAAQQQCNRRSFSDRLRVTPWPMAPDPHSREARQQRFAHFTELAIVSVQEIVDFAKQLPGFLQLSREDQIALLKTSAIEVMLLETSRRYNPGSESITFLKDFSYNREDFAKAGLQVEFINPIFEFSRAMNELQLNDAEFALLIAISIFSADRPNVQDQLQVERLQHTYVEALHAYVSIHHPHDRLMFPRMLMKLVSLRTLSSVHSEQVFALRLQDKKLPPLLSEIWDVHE
The experiment in a line: Ligand-binding test procedure for human LXRα. The conditions noted are these: 3H T0901317 tracer; biotinylated hLXRα from E. coli extract. The method, then:
II. Ligand-Binding Test Procedure for Human LXRα.
as §1
Receptor source: E. coli extract from cells expressing biotinylated hLXRα. Extract was made in a similar buffer as above, but with 50 mM TRIS.
as §2
Made a dilution series in DMSO of the test ligands. Made a 5 nM solution of the radioactive tracer in buffer. Mixed 250 μl diluted tracer with 5 μl of the test ligand from each concentration of the dilution series.
Washed the receptor-coated flash plates.
Added 200 μl per well of the ligand/radiolabel mixture to the receptor-coated flash plates. Wrapped the plates in aluminum foil and incubate at +4° C. over night.
as §3

The test system of the next test is ABCA1 gene. The experiment in a line: Quantitative analysis of ABCA1 gene regulation in THP-1 cells. It is filed as cell-based. Particulars: Gene regulation by LXR (human), differentiated THP-1 cells; for EC50: 18 hrs, ABCA1 mRNA by real-time PCR; for Agonism ABCA1: LXR agonist reference dosed at 1.0 uM as positive control. Here is the method:
III. Quantitative Analysis of ABCA1 Gene Regulation in THP-1 Cells.
The compounds of formula (I) effect on the regulation of the ABCA1 gene was evaluated using the following procedure.
Cell culture: The THP-1 monocytic cell line (ATCC # TIB-202) was obtained from American Type Culture Collection (Manassas, Va.) and cultured in RPMI 1640 medium (Gibco, Carlsbad, Calif.) containing 10% FBS, 2 mM L-glutamine, and 55 uM beta-Mercaptoethanol (BME). Cells were plated in 96-well format at a density of 7.5×10^4 in complete medium containing 50-100 ng/ml phorbal 12,13-dibutyrate (Sigma, St. Louis, Mo.) for three days to induce differentiation into adherent macrophages. Differentiated THP-1 cells were treated with test compounds or ligands dissolved in DMSO (Sigma, D-8779) in culture medium lacking phorbal ester. […] Dose response effects were measured in duplicate, in the range of 0.001 to 30 micromolar concentrations and treated cells were incubated for an additional 18 hrs prior to RNA isolation. Unstimulated cells treated with vehicle were included as negative controls on each plate. An LXR agonist reference, N-(2,2,2-trifluoro-ethyl)-N-[4-(2,2,2-trifluoro-1-hydroxy-1-trifluoromethyl-ethyl)-phenyl]-benzenesulfonamide (Schultz, Joshua R., Genes & Development (2000), 14(22), 2831-2838), was dosed at 1.0 uM and served as a positive control. In antagonist mode, the compound under study is analyzed in the presence of 150 nM GW3965, trifluoromethyl-benzyl)-(2,2-diphenyl-ethyl)-amino]-propoxy]-phenyl)-acetic acid (Collins, J. L., J. Med. Chem. (2000), 45:1963-1966.). Results of antagonist analysis are expressed as % antagonism and IC50 (in μM). RNA isolation and quantitation: Total cellular RNA was isolated from treated cells cultured in 96-well plates using PrepStation 6100 (Applied Biosystems, Foster City, Calif.), according to the manufacturer's recommendations. RNA was resuspended in ribonuclease-free water and stored at −70° C. prior to analysis. RNA concentrations were quantitated with RiboGreen test procedure, #R-11490 (Molecular Probes, Eugene, Oreg.). Gene expression analysis: Gene-specific mRNA quantitation was performed by real-time PCR with the Perkin Elmer Corp. chemistry on an ABI Prism 7700 Sequence detection system (Applied Biosystems, Foster City, Calif.) according to the manufacturer's instructions. Samples (50-100 ng) of total RNA were assayed in duplicate or triplicate in 50 ul reactions using one-step RT-PCR and the standard curve method to estimate specific mRNA concentrations. Sequences of gene-specific primer and probe sets were designed with Primer Express Software (Applied Biosystems, Foster City, Calif.). The human ABCA1 primer and probe sequences are: forward, […], reverse, […], and probe, 6FAM-[…]-TAMRA. RT and PCR reactions were performed according to PE Applied Biosystem's protocol for Taqman Gold RT-PCR or Qiagen's protocl for Quantitect probe RT-PCR. Relative levels of ABCA1 mRNA are normalized using GAPDH mRNA or 18S rRNA probe/primer sets purchased commercially (Applied Biosystems, Foster City, Calif.).
Mean, standard deviation and statistical significance of duplicate evaluations of RNA samples were assessed using ANOVA, one-way analysis of variance using SAS analysis.
For orientation: Quantitative PCR measures a nucleic acid by following its amplification.

Structures are written as SMILES.

Turning to `CS(=O)(=O)c1cccc(Oc2cccc(-c3c(Cc4ccccc4)nc4c(C(F)(F)F)ccnn34)c2)c1` [Example 7, 2-Benzyl-3-{3-[3-(methylsulfonyl)phenoxy]phenyl}-8-(trifluoromethyl)imidazo[1,2-b]pyridazine], the IC50 worked out at 1.96 nM on human LXRβ and 44 nM on human LXRα.

In the case of `CCc1nc2c(C(F)(F)F)ccnn2c1-c1cccc(Oc2cccc(S(C)(=O)=O)c2)c1` [Example 8, 2-ethyl-3-{3-[3-(methylsulfonyl)phenoxy]phenyl}-8-(trifluoromethyl)imidazo[1,2-b]pyridazine], the IC50 at human LXRβ amounted to 133 nM. Also, in the test with ABCA1 gene, the EC50 was 1850 nM and the “Agonism ABCA1” value is listed as 85%. Besides, at human LXRα, the IC50 was 2040 nM.

Take `CCc1nc2c(C(F)(F)F)ccnn2c1-c1cccc(Oc2cccc(S(=O)(=O)CC)c2)c1` [Example 9, 2-Ethyl-3-{3-[3-(ethylsulfonyl)phenoxy]phenyl}-8-(trifluoromethyl)imidazo[1,2-b]pyridazine]: the IC50 was determined as 148 nM on human LXRβ and 1570 nM on human LXRα.

For the compound `CC(C)c1nc2c(C(F)(F)F)ccnn2c1-c1cccc(Oc2cccc(S(C)(=O)=O)c2)c1` [Example 10, 2-isopropyl-3-{3-[3-(methylsulfonyl)phenoxy]phenyl}-8-(trifluoromethyl)imidazo[1,2-b]pyridazine], the half-maximal inhibitory concentration (IC50) at human LXRβ turned out to be 99 nM. Further, in the test on ABCA1 gene, the half-maximal effective concentration (EC50) worked out at 1840 nM and the “Agonism ABCA1” value amounted to 81%. Besides, the IC50 at human LXRα came to 1460 nM.

Compound `CCS(=O)(=O)c1cccc(Oc2cccc(-c3c(C(C)C)nc4c(C(F)(F)F)ccnn34)c2)c1` [Example 11, 3-{3-[3-(ethylsulfonyl)phenoxy]phenyl}-2-isopropyl-8-(trifluoromethyl)imidazo[1,2-b]pyridazine] had an IC50 at human LXRβ of 117 nM. In the test with ABCA1 gene, a half-maximal response (EC50) required 2050 nM and the “Agonism ABCA1” value is 92%. On human LXRα, this compound displayed an IC50 of 1090 nM.
